Measured values as given in the supplement of paper PMC5908809.

Key:
KHYG-1 (IL-2 2.5 ng/mL) [1] = assay: percent inhibition of viability; higher = more inhibition; conditions: 72 h
[2] = tested on: normal primary NK cells, pool 2 (3 donors) (IL-2 2.5 ng/mL); assay: as above; conditions: 72 h
DERL-7 (IL-2 2.5 ng/mL) [3] = assay: as above; conditions: 72 h
NKL (IL-2 2.5 ng/mL) [4] = assay: as above; conditions: 72 h
KAI3 (IL-2 2.5 ng/mL) [5] = assay: as above; conditions: 72 h
NK-92 (IL-2 2.5 ng/mL) [6] = assay: as above; conditions: 72 h
YT (IL-2 2.5 ng/mL) [7] = assay: as above; conditions: 72 h
[8] = tested on: normal primary NK cells, pool 3 (3 donors) (IL-2 2.5 ng/mL); assay: as above; conditions: 72 h
SNK-6 (IL-2 2.5 ng/mL) [9] = assay: as above; conditions: 72 h
[10] = tested on: normal primary NK cells, pool 1 (3 donors), resting (IL-2 0 ng/mL); assay: as above; conditions: 72 h
IMC-1 (IL-2 20 ng/mL) [11] = assay: as above; conditions: 72 h
NK-YS (IL-2 2.5 ng/mL) [12] = assay: as above; conditions: 72 h
[13] = tested on: normal primary NK cells, pool 1 (3 donors) (IL-2 2.5 ng/mL); assay: as above; conditions: 72 h
[14] = tested on: normal NK cells expanded with K562-aAPC; assay: drug sensitivity score (DSS) (DSS units); higher = more sensitive; extreme values may be limits of the assay; conditions: 72 h; IL-2 2.5 ng/mL
Experimental: (§1)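 Drug sensitivity and resistance testing on K562-aAPC-expanded normal NK cells: 5 concentrations (10-fold steps over a 10,000-fold range), 72 h at 37 °C, viability by CellTiter-Glo normalised to DMSO and benzethonium chloride controls; DSS from the fitted curve.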

KHYG-1 (IL-2 2.5 ng/mL) [15] = assay: as above; conditions: 72 h
[16] = tested on: normal primary NK cells, pool 2 (3 donors) (IL-2 2.5 ng/mL); assay: as above; conditions: 72 h
DERL-7 (IL-2 2.5 ng/mL) [17] = assay: as above; conditions: 72 h
NKL (IL-2 2.5 ng/mL) [18] = assay: as above; conditions: 72 h
KAI3 (IL-2 2.5 ng/mL) [19] = assay: as above; conditions: 72 h
NK-92 (IL-2 2.5 ng/mL) [20] = assay: as above; conditions: 72 h
YT (IL-2 2.5 ng/mL) [21] = assay: as above; conditions: 72 h
[22] = tested on: normal primary NK cells, pool 3 (3 donors) (IL-2 2.5 ng/mL); assay: as above; conditions: 72 h
SNK-6 (IL-2 2.5 ng/mL) [23] = assay: as above; conditions: 72 h
[24] = tested on: normal primary NK cells, pool 1 (3 donors), resting (IL-2 0 ng/mL); assay: as above; conditions: 72 h
IMC-1 (IL-2 20 ng/mL) [25] = assay: as above; conditions: 72 h
NK-YS (IL-2 2.5 ng/mL) [26] = assay: as above; conditions: 72 h
[27] = tested on: normal primary NK cells, pool 1 (3 donors) (IL-2 2.5 ng/mL); assay: as above; conditions: 72 h
[28] = tested on: normal NK cells expanded with K562-aAPC; assay: percent inhibition of viability; higher = more inhibition; conditions: 72 h, IL-2 2.5 ng/mL
Experimental: as §1

CCOc1ccn(-c2ccc(F)cc2)c(=O)c1C(=O)Nc1ccc(Oc2ccnc(N)c2Cl)c(F)c1 (max concentration tested 2500 nM)
percent inhibition of viability [%]
Conditions	0.25 nM	2.5 nM	25 nM	250 nM	2500 nM
DERL-7 (IL-2 2.5 ng/mL) [3]	0.56	6.06	-1.35	-3.94	-13.7
IMC-1 (IL-2 20 ng/mL) [11]	1.35	4.61	9.25	10.7	18.1
KAI3 (IL-2 2.5 ng/mL) [5]	-2.82	-5.11	1.22	-8.32	20.1
KHYG-1 (IL-2 2.5 ng/mL) [1]	2.8	3.63	7.75	3.92	7.23
NK-92 (IL-2 2.5 ng/mL) [6]	3.4	-2.02	21.5	-9.18	16.5
NK-YS (IL-2 2.5 ng/mL) [12]	2.13	-0.09	0.55	-3.25	13.2
NKL (IL-2 2.5 ng/mL) [4]	-8.21	-0.56	-2.88	6.9	-2.79
SNK-6 (IL-2 2.5 ng/mL) [9]	22.9	33.8	31.2	18.3	22.9
YT (IL-2 2.5 ng/mL) [7]	2.07	4.23	5.47	0.52	37
[2]	-3.75	2.69	-0.75	-6	3.09
[8]	-11.7	1.36	-4.15	-4.08	-3.34
[10]	1.56	-12.4	-1.07	-26.3	-16.3
[13]	0.3	-5.73	-0.6	-11.2	-8.87
[28]	2.01	1.6	-0.61	0.57	7.12

Conditions	drug sensitivity score
DERL-7 (IL-2 2.5 ng/mL) [17]	0
IMC-1 (IL-2 20 ng/mL) [25]	1.25
KAI3 (IL-2 2.5 ng/mL) [19]	0.35
KHYG-1 (IL-2 2.5 ng/mL) [15]	0
NK-92 (IL-2 2.5 ng/mL) [20]	0.14
NK-YS (IL-2 2.5 ng/mL) [26]	0.06
NKL (IL-2 2.5 ng/mL) [18]	0
SNK-6 (IL-2 2.5 ng/mL) [23]	0.23
YT (IL-2 2.5 ng/mL) [21]	1.85
[14]	0
[16]	0
[22]	0
[24]	0
[27]	0

COC1=CC(c2cc3ccccc3[nH]2)=N/C1=C\c1[nH]c(C)cc1C [Obatoclax] (max concentration tested 10000 nM)
percent inhibition of viability [%]
Conditions	1 nM	10 nM	100 nM	1000 nM	10000 nM
DERL-7 (IL-2 2.5 ng/mL) [3]	-3.53	-2.23	2.25	2.35	36.5
IMC-1 (IL-2 20 ng/mL) [11]	-4.53	-1.62	-0.16	4.8	18.5
KAI3 (IL-2 2.5 ng/mL) [5]	2.78	2.46	-1.6	14.8	41.8
KHYG-1 (IL-2 2.5 ng/mL) [1]	-3.69	-0.55	0.4	15.8	35.2
NK-92 (IL-2 2.5 ng/mL) [6]	-5.85	7.72	16.4	50	77.5
NK-YS (IL-2 2.5 ng/mL) [12]	-4.05	-1.77	1.63	13.8	26.2
NKL (IL-2 2.5 ng/mL) [4]	-2.53	-11.6	25.5	67.5	84.2
SNK-6 (IL-2 2.5 ng/mL) [9]	-0.44	6.97	-8.81	6.17	16.6
YT (IL-2 2.5 ng/mL) [7]	0.99	0.48	1.63	21.2	48.1
[2]	-4.7	-5.9	5.89	6.17	37.3
[8]	-3.41	-11.5	3.42	9.76	34.5
[10]	-9.87	-1.78	-10.3	10	59
[13]	-0.48	0.81	-4.45	6.95	39.1
[28]	0.42	2.59	3.2	6.46	21.2

Conditions	drug sensitivity score
DERL-7 (IL-2 2.5 ng/mL) [17]	2.1
IMC-1 (IL-2 20 ng/mL) [25]	1.04
KAI3 (IL-2 2.5 ng/mL) [19]	4.2
KHYG-1 (IL-2 2.5 ng/mL) [15]	3.67
NK-92 (IL-2 2.5 ng/mL) [20]	11.6
NK-YS (IL-2 2.5 ng/mL) [26]	2.34
NKL (IL-2 2.5 ng/mL) [18]	15.6
SNK-6 (IL-2 2.5 ng/mL) [23]	0.94
YT (IL-2 2.5 ng/mL) [21]	5.06
[14]	1.2
[16]	2.84
[22]	2.91
[24]	4.87
[27]	3.07
